{"source": "ChEMBL document CHEMBL1127875", "about": "(Bioorg Med Chem Lett, 1994)", "data": [{"species": "Oryctolagus cuniculus", "experiment": "pA2 value determined by their ability to block AngII induced contractile responses in rabbit aorta strips", "type": "functional", "conditions": "read-out: pA2 (converted)", "units": {"Kb": "nM"}, "values": [{"smiles": "CCCCCCC(C(=O)O)n1cnc(NC(=O)c2cccc(O)c2C(=O)O)c1", "note": "(stereo unspecified)", "Kb": 100}, {"smiles": "CCCCCCC(C(=O)O)n1cnc(NC(=O)c2ccccc2C2N=NN=N2)c1", "note": "(stereo unspecified)", "Kb": 100}, {"smiles": "CCCCCCC(C(=O)O)n1cnc(NC(=O)c2ccccc2C(=O)O)c1", "note": "(stereo unspecified)", "Kb": 100}]}, {"molecular_target": "T1, Type-1 angiotensin II receptor (Oryctolagus cuniculus) (UniProt P34976)", "T1 sequence (whole entry)": "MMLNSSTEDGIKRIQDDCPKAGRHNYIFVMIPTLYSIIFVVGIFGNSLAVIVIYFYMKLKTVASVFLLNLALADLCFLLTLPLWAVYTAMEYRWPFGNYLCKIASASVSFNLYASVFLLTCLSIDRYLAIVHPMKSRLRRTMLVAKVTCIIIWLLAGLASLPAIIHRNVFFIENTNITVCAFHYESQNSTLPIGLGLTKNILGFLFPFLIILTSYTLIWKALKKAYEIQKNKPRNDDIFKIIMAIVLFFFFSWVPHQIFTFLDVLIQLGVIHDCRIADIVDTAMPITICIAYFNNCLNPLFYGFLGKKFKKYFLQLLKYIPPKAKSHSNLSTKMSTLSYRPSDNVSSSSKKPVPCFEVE", "experiment": "In vitro antagonism of Angiotensin II receptor, type 1 in isolated rabbit thoracic aorta", "type": "functional, tissue-based", "conditions": "not given", "units": {"Kb": "nM"}, "values": [{"smiles": "CCCCCC[C@@H](C(=O)N1C[C@H](Oc2ccc(CC(=O)O)cc2)C[C@H]1C(=O)O)n1cnc(NC(=O)c2ccccc2S(=O)(=O)O)c1", "Kb": 555}, {"smiles": "CCCCCC[C@@H](C(=O)N1C[C@@H](Oc2ccc(CC(=O)O)cc2)C[C@H]1C(=O)O)n1cnc(NC(=O)c2ccccc2S(=O)(=O)O)c1", "Kb": 4.5}, {"smiles": "CCCCCC[C@H](C(=O)N1C[C@@H](Oc2ccc(CC(=O)O)cc2)C[C@@H]1C(=O)O)n1cnc(NC(=O)c2ccccc2S(=O)(=O)O)c1", "Kb": 156}, {"smiles": "CCCCCC[C@H](C(=O)N1C[C@H](Oc2ccc(CC(=O)O)cc2)C[C@H]1C(=O)O)n1cnc(NC(=O)c2ccccc2S(=O)(=O)O)c1", "Kb": 503}, {"smiles": "CCCCCC[C@H](C(=O)N1C[C@@H](Oc2ccc(CC(=O)O)cc2)C[C@H]1C(=O)O)n1cnc(NC(=O)c2ccccc2S(=O)(=O)O)c1", "Kb": 0.12}, {"smiles": "CCCCCC[C@@H](C(=O)N1C[C@H](Oc2ccc(CC(=O)O)cc2)C[C@@H]1C(=O)O)n1cnc(NC(=O)c2ccccc2S(=O)(=O)O)c1", "Kb": 489}, {"smiles": "CCCCCC[C@@H](C(=O)N1C[C@@H](Oc2ccc(CC(=O)O)cc2)C[C@@H]1C(=O)O)n1cnc(NC(=O)c2ccccc2S(=O)(=O)O)c1", "Kb": 761}, {"smiles": "CCCCCC[C@H](C(=O)N1C[C@H](Oc2ccc(CC(=O)O)cc2)C[C@@H]1C(=O)O)n1cnc(NC(=O)c2ccccc2S(=O)(=O)O)c1", "Kb": 191}]}]}
